Holding throughout (format): functional
In test [1] the test system is Aggregatibacter actinomycetemcomitans. Description: Antibacterial activity against Actinobacillus actinomycetemcommitans ATCC 43717 after 1 to 2 days under anaerobic condition by serial dilution method.
A further test deals with Actinomyces naeslundii. Description: Antibacterial activity against Actinomyces naeslundii ATCC 12104 after 1 to 2 days under anaerobic condition by serial dilution method.
A further test has as its system Streptococcus mutans. Description: Antibacterial activity against Streptococcus mutans ATCC 25175 after 1 to 2 days under anaerobic condition by serial dilution method.

Molecules are shown by their SMILES. In brackets after ≈: the same amount, converted by molar mass. Activity calls are given as the source filed them. The calls are words filed in the database; no cut-off is given here. Some results are limits rather than exact numbers.

On to `C=C[C@@]1(C)CC[C@@]2(C)[C@@H](CC=C3[C@@H]2CCC[C@]3(C)CO[C@@H]2O[C@@H](COC(C)=O)[C@H](OC(C)=O)[C@H]2O)C1`, for which the result in test [1] was inactive.

Regarding `C=C[C@@]1(C)CC[C@@]2(C)[C@@H](CC[C@]3(O)[C@@H]2CCC[C@]3(C)C(=O)O)C1`, the outcome in test [1] was inactive.

With `C=C[C@@]1(C)CC[C@@]2(C)[C@@H](CC=C3[C@@H]2CCC[C@]3(C)C(=O)O)C1` [SAGITTINE A], the MIC in test [1] was more than 250 µg/mL; against Actinomyces naeslundii, 62.5 µg/mL (≈ 207 µM); against Streptococcus mutans it was 62.5 µg/mL (≈ 207 µM).

Regarding `C=C[C@@]1(C)CC[C@@]2(C)[C@@H](CC=C3[C@@H]2CCC[C@]3(C)CO[C@@H]2O[C@@H](CO)[C@H](O)[C@H]2O)C1` [SAGITTINE B], the MIC in test [1] is 250 µg/mL (≈ 594 µM); in the test with Actinomyces naeslundii, 125 µg/mL (≈ 297 µM); in the test with Streptococcus mutans, 62.5 µg/mL (≈ 149 µM).

`C=C[C@@]1(C)CC[C@@]2(C)[C@@H](CC=C3[C@@H]2CCC[C@]3(C)CO[C@@H]2O[C@@H](COC(C)=O)[C@H](O)[C@H]2O)C1` [SAGITTINE C]: the MIC in test [1] is 250 µg/mL (≈ 540 µM); with Actinomyces naeslundii, 62.5 µg/mL (≈ 135 µM); in the test on Streptococcus mutans, 62.5 µg/mL (≈ 135 µM).

For the compound `C=C[C@@]1(C)CC[C@@]2(C)[C@@H](CC=C3[C@@H]2CCC[C@]3(C)CO[C@@H]2O[C@@H](CO)[C@H](O)[C@H]2OC(C)=O)C1` [SAGITTINE D], the MIC in test [1] was determined as 250 µg/mL (≈ 540 µM); in the test with Actinomyces naeslundii, 125 µg/mL (≈ 270 µM); in the test on Streptococcus mutans, 125 µg/mL (≈ 270 µM).

As for `C=C[C@@]1(C)CC[C@@]2(C)[C@@H](CC=C3[C@@H]2CCC[C@]3(C)CO[C@@H]2O[C@@H](COC(C)=O)[C@H](O)[C@H]2OC(C)=O)C1` [SAGITTINE E], the values for the MIC (in test [1]; against Actinomyces naeslundii; against Streptococcus mutans) were more than 250 µg/mL, 62.5 µg/mL (≈ 124 µM) and more than 250 µg/mL, respectively.

The values above are taken from ChEMBL document CHEMBL1157253, “ent-rosane and labdane diterpenoids from Sagittaria sagittifolia and their antibacterial activity against three oral pathogens” (2006).
